From patent publication US11160764B2, “Drug delivery composition containing silyl polymers” (Medherant Limited, priority 2015, dated 2021)
Values after ≈ are worked out from the molar mass of the structure shown. Like-named read-outs stand apart in the source and are kept apart here.

Assays:
[1] = Solubility of drugs in the adhesive compositions / patches
Procedure: Three different grades of composition were employed in solubility experiments: A, B and C (see below). A is the grade which was used for initial studies and further was used as the standard grade for solubility tests.
A sample of composition is pre-heated to 80° C. in a closed cartridge or inert environment to avoid contact with moisture and approximately 10 ml of the composition is added into a beaker and weighed. A desired quantity of drug, preservative and excipients are then added to the mixture. The mixture is mixed until it has been homogenised and is then cast with the help of a heated Meyer bar onto a release liner. Once cast, the layers of composition are cured at 60° C. in a humid environment during 16 hours.
In all experiments benzyl alcohol (BenzOH) was employed as a co-solvent. BenzOH is widely used in both pharmaceutical and cosmetic formulations as a preservative, and therefore its addition is required to improve the shelf life of patches. […] Additionally, it acts as a solvent for drugs improving their dissolution in the polymer matrix compositions. The total amount of BenzOH in all formulations was in a range of 1-3% w/w.
All compounds in the liquid state were added by volume, which was estimated using their specific densities.

[2] = cited from earlier work
[3] = Drug release analysis: permeation from patch across Pion membrane in Franz cell; conditions: patch of the invention, PBS pH 7.4
Procedure: The membrane and patch are then placed in a Franz cell and then a PBS pH 7.4 buffer solution is added. Samples are taken at one hour interval for 8 hours. The amount of drug released is calculated using a validated HPLC/UV-Vis method depending on the drug in question.

## CN(Cc1cnc2nc(N)nc(N)c2n1)c1ccc(C(=O)N[C@@H](CCC(=O)O)C(=O)O)cc1 [Methotrexate]
[1]
  Sol. type: Molecular
[1]; grade A composition (Table 5)
  Max. mass fraction: 7%
  Soluble in A: ✓
[2]
  Solubility in water: insoluble

## C[C@]12C=CC(=O)C=C1CC[C@@H]1[C@@H]2[C@@H](O)C[C@@]2(C)[C@H]1CC[C@]2(O)C(=O)CO [Prednisolone]
[1]; grade A composition (Table 5)
  Sol. type: Dispersion

## CC(=O)[C@H]1CC[C@H]2[C@@H]3CCC4=CC(=O)CC[C@]4(C)[C@H]3CC[C@]12C [Progesterone]
[1]
  Max. mass fraction: 15%
  Sol. type: Molecular
  Soluble in A: ✓
[2]
  Solubility in water: 9 µg/mL (≈ 28.6 µM)

## CC(=O)Oc1ccccc1C(=O)O [Aspirin]
[1]
  Sol. type: Dispersion

## CC(C)Cc1ccc(C(C)C(=O)O)cc1 (stereo not drawn) [Ibuprofen]
[3]; sample 1 hours
  Permeated drug amount: 15.46 μg cm^−2
[3]; sample 2 hours
  Permeated drug amount: 37.23 μg cm^−2
[3]; sample 4 hours
  Permeated drug amount: 73.85 μg cm^−2
[3]; sample 6 hours
  Permeated drug amount: 99.60 μg cm^−2

## C[C@]12CC[C@H]3[C@@H](CCC4=CC(=O)CC[C@@]43C)[C@@H]1CC[C@@H]2O [Testosterone]
[1]; grade A composition (Table 5)
  Max. mass fraction: 5%
  Sol. type: Molecular
  Soluble in A: ✓

## CCCN[C@H]1CCc2nc(N)sc2C1 [Pramipexole]
[1]
  Sol. type: Dispersion
[2]
  Solubility in water: 3900 µg/mL (≈ 18500 µM)

## O=C(C1CCCCC1)N1CC(=O)N2CCc3ccccc3C2C1 (stereo not drawn) [Praziquantel]
[1]
  Max. mass fraction: 10%
  Sol. type: Molecular
  Soluble in A: ✓

## COC(=O)c1ccccc1O [Methyl salicylate]
[1]
  Sol. type: Molecular
[1]; adhesive grade F15
  Solubility in adhesive F15: ✓
[1]; adhesive grade F16
  Solubility in adhesive F16: ✓
[1]; adhesive grade F17
  Solubility in adhesive F17: ✓
[1]; grade A composition
  Conc., wt %: >5 wt %
  Solubility of analgesic drugs in compositions: A: ✓
[1]; grade A composition (Table 5)
  Max. mass fraction: 30%
  Soluble in A: ✓
[1]; grade B composition
  Conc., wt %: >5 wt %
  Solubility of analgesic drugs in compositions: B: ✓
[1]; grades A, B and C
  Drug solubility compared between all three grades: identical
[1]; standard grade (A)
  Solubility in the standard grade (A) composition, in words: readily soluble
[2]
  Solubility in water: 690 µg/mL (≈ 4540 µM)
[3]; sample 1 hours
  Permeated drug amount: 18.25 μg cm^−2
[3]; sample 2 hours
  Permeated drug amount: 24.58 μg cm^−2
[3]; sample 4 hours
  Permeated drug amount: 59.78 μg cm^−2
[3]; sample 6 hours
  Permeated drug amount: 83.03 μg cm^−2

## CC(C(=O)O)c1cccc(C(=O)c2ccccc2)c1 (stereo not drawn) [Ketoprofen]
[3]; sample 1 hours
  Permeated drug amount: 0.90 μg cm^−2
[3]; sample 2 hours
  Permeated drug amount: 4.59 μg cm^−2
[3]; sample 4 hours
  Permeated drug amount: 17.37 μg cm^−2
[3]; sample 6 hours
  Permeated drug amount: 35.67 μg cm^−2

## CC(C)[C@@H]1CC[C@@H](C)C[C@H]1O [Levomenthol]
[1]
  Conc., wt %: >5 wt %
  Max. mass fraction: 30%

## Ivermectin
[1]; grade A composition (Table 5)
  Max. mass fraction: 5%
  Sol. type: Molecular
  Soluble in A: ✓

## [H]/N=C(\N/C(=N/[H])NCCCCCCNC(=N)NC(=N)Nc1ccc(Cl)cc1)Nc1ccc(Cl)cc1 [Chlorhexidine]
[1]
  Sol. type: Molecular
[1]; Medherant patches / compositions of the invention
  Solubility in compositions and patches of the invention: ~3.5 % w/w
[1]; grade A composition (Table 5)
  Max. mass fraction: 3.5%
  Soluble in A: ✓

## O=C(O)Cc1ccccc1Nc1c(Cl)cccc1Cl [Diclofenac]
[3]; sample 1 hours
  Permeated drug amount: 0.11 μg cm^−2
[3]; sample 2 hours
  Permeated drug amount: 0.16 μg cm^−2
[3]; sample 4 hours
  Permeated drug amount: 0.39 μg cm^−2
[3]; sample 6 hours
  Permeated drug amount: 0.47 μg cm^−2

## C[C@H]1[C@H](OC(=O)CCC(=O)O)O[C@@H]2O[C@@]3(C)CC[C@H]4[C@H](C)CC[C@@H]1[C@@]24OO3 [Artesunate]
[1]
  Max. mass fraction: 6%
  Sol. type: Molecular
  Soluble in A: ✓
[2]
  Solubility in water: 56 µg/mL (≈ 146 µM)

## C[C@@H]1[C@H](O)[C@@H](C)/C=C/C=C/CC/C=C/C=C/C=C/C=C/C(O[C@H]2O[C@H](C)[C@@H](O)[C@H](N)[C@@H]2O)CC2O[C@](O)(CC(O)C(O)CCC(O)CC(O)CC(O)CC(=O)O[C@H]1C)CC(O)C2C(=O)O (stereo partly drawn) [Nystatin]
[1]; grade A composition (Table 5)
  Sol. type: Molecular
  Soluble in A: ✓

## CCCNC(C)C(=O)Nc1ccccc1C (stereo not drawn) [Prilocaine]
[1]
  Distribution of the drug in the patch: uniformly distributed in the patch in a form of micro particles
  Sol. type: Dispersion
  Solubility in the standard grade (A) composition, in words: poor solubility
[2]
  Solubility in water: 540 µg/mL (≈ 2450 µM)

## Cn1c(=O)c2c(ncn2C)n(C)c1=O [Caffeine]
[3]; sample 1 hours
  Permeated drug amount: 0.19 μg cm^−2
[3]; sample 2 hours
  Permeated drug amount: 2.33 μg cm^−2
[3]; sample 4 hours
  Permeated drug amount: 3.26 μg cm^−2
[3]; sample 6 hours
  Permeated drug amount: 21.89 μg cm^−2

## C[C@@H]1CC[C@H]2[C@@H](C)C(=O)O[C@@H]3O[C@@]4(C)CC[C@@H]1[C@]32OO4 [Artemisinin]
[1]
  Max. mass fraction: 9%
  Sol. type: Molecular
  Soluble in A: ✓
[2]
  Solubility in water: insoluble

## COc1ccc2c(c1)c(CC(=O)O)c(C)n2C(=O)c1ccc(Cl)cc1 [Indomethacin]
[1]
  Conc., wt %: >5 wt %
  Max. mass fraction: 10%
  Sol. type: Molecular
  Solubility of analgesic drugs in compositions: A: ✓
  Solubility of analgesic drugs in compositions: B: ✓
  Soluble in A: ✓
[2]
  Solubility in water: 2 µg/mL (≈ 5.59 µM)

## O=C(Oc1ccccc1C(=O)O)c1ccccc1O [Salsalate]
[1]
  Conc., wt %: >5 wt %
  Max. mass fraction: 10%
  Sol. type: Molecular
  Solubility of analgesic drugs in compositions: A: ✓
  Solubility of analgesic drugs in compositions: B: ✓
  Soluble in A: ✓
[2]
  Solubility in water: 246 µg/mL (≈ 953 µM)

## O=C(O)c1ccccc1O [Salicylic acid]
[1]
  Conc., wt %: >5 wt %
  Max. mass fraction: 30%
  Sol. type: Molecular
  Solubility in the standard grade (A) composition, in words: readily soluble
  Solubility of analgesic drugs in compositions: A: ✓
  Solubility of analgesic drugs in compositions: B: ✓
  Soluble in A: ✓
[3]; sample 1 hours
  Permeated drug amount: 3.38 μg cm^−2
[3]; sample 2 hours
  Permeated drug amount: 11.92 μg cm^−2
[3]; sample 4 hours
  Permeated drug amount: 31.75 μg cm^−2
[3]; sample 6 hours
  Permeated drug amount: 54.71 μg cm^−2

## Cc1ccc2c(Cl)cc(Cl)c(O)c2n1 [Chlorquinaldol]
[1]; grade A composition (Table 5)
  Max. mass fraction: 15%
  Sol. type: Molecular
  Soluble in A: ✓
[1]; grades of the compositions of the invention
  Solubility in compositions and patches of the invention, in words: good dissolution
[1]; patches of the invention
  Concentration / mass fraction in patches can be increased up to: up to 15 % w/w
[2]
  Solubility in water: insoluble

## COc1cc(Cc2cnc(N)nc2N)cc(OC)c1OC [Trimethoprim]
[1]
  Sol. type: Dispersion

## CC(C)(C)NCC(O)c1ccc(O)c(CO)c1 (stereo not drawn) [Salbutamol]
[1]
  Max. mass fraction: 5%
  Sol. type: Molecular
  Soluble in A: ✓

## CC1(C)S[C@@H]2[C@H](NC(=O)Cc3ccccc3)C(=O)N2[C@H]1C(=O)O [Penicillin G]
[1]; grade A composition (Table 5)
  Sol. type: Dispersion

## CC(C(=O)O)c1ccc(-c2ccccc2)c(F)c1 (stereo not drawn) [Flurbiprofen]
[1]
  Sol. type: Molecular
[1]; grade A composition
  Conc., wt %: >5 wt %
  Solubility of analgesic drugs in compositions: A: ✓
[1]; grade A composition (Table 5)
  Max. mass fraction: 15%
  Soluble in A: ✓
[1]; grade B composition
  Conc., wt %: >5 wt %
  Solubility of analgesic drugs in compositions: B: ✓
[2]
  Solubility in water: 25 µg/mL (≈ 102 µM)

## CN1C(C(=O)Nc2ccccn2)=C(O)c2ccccc2S1(=O)=O [Piroxicam]
[1]
  Sol. type: Molecular
[1]; grade A composition
  Conc., wt %: ~2.5 wt %
  Solubility of analgesic drugs in compositions: A: ✓
[1]; grade A composition (Table 5)
  Max. mass fraction: 2.5%
  Soluble in A: ✓
[1]; grade B composition
  Conc., wt %: ~2.5 wt %
  Solubility of analgesic drugs in compositions: B: ✓
[1]; standard grade (A)
  Limited solubility: ~2.5 % w/w

## CN1CCCC1c1cccnc1 (stereo not drawn) [Nicotine]
[1]
  Concentration / mass fraction in patches can be increased up to: up to 30 % w/w
  Max. mass fraction: 30%
  Sol. type: Molecular
  Solubility in compositions and patches of the invention, in words: freely soluble
  Soluble in A: ✓
[3]; sample 1 hours
  Permeated drug amount: 2.26 μg cm^−2
[3]; sample 2 hours
  Permeated drug amount: 5.05 μg cm^−2
[3]; sample 4 hours
  Permeated drug amount: 13.76 μg cm^−2
[3]; sample 6 hours
  Permeated drug amount: 18.33 μg cm^−2
